The values below come from patent US20190002452A1 (GUANGZHOU HENOVCOM BIOSCIENCE CO., LTD, priority 2016, published 2019).

This experiment addresses T1, human farnesol receptor protein hFXR (Homo sapiens, UniProt Q96RI1).
T1 construct: hexahistidine (His6)
T1 sequence (Q96RI1 1-486): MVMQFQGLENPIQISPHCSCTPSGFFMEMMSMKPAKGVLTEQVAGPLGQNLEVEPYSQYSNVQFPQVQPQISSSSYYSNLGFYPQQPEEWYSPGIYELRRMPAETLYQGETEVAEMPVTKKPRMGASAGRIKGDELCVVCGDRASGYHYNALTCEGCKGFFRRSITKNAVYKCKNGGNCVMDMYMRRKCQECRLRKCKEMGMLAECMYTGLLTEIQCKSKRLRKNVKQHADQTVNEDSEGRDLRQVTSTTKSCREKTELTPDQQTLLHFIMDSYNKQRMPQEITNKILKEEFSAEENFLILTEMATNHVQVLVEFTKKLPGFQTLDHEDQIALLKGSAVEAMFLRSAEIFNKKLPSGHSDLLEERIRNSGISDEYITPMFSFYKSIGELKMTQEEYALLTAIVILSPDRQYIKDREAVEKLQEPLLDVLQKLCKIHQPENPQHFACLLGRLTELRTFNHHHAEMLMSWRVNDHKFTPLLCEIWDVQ
As to the kind of experiment: AlphaScreen assay of FXR agonist activity in vitro: effect on binding between human farnesol receptor protein and its coactivator (SRC1-2). Type of experiment: biochemical. Conditions: hFXR 100 nM, peptide bSRC1-2 50 nM, 2 hr incubation at room temperature. The method, then:
FXR agonist activity in vitro for the chemicals prepared in the above examples is measured.
AlphaScreen-based assays are performed with a hexahistidine detection kit manufactured by Perkins-Elmer, for measuring the effect of chemical compounds on the binding between human farnesol receptor protein and its coactivator (SRC1-2), the method is shown as follows:
1) Preparing a mixture comprising human farnesol receptor protein hFXR (100 nM, 15 μL/well), peptide bSRC1-2 (50 nM, 15 μL/well), 10× AlphaScreen buffer solution (15 μL/well and DI water (60 μL/well), and then transferring 105 μL/well of the mixture to a 96-well plate; 2) Diluting the chemicals prepared in the above examples by twice gradient 12×, with 15 μL/well; 3) Adding donor beads and acceptor beads, 30 μL/well in total; (attention: the beads are light-sensitive) 4) Incubating in dark at room temperature for 2 hr; 5) Transferring 40 μL/well of the mixture to a 384-well plate with 3 replicates, and then centrifuging at 1000 rpm for 1 min, to make liquid mixed well underneath the wells. (attention: photopathic operation); 6) In a dark room, reading the plate (by Homogeneous luminescent immunoassay system) to obtain EC50 with a GraphPad Prism5 software.
In general terms: In Alpha technology, singlet oxygen from a donor bead excites a nearby acceptor bead.

For orientation: EC50 means the concentration that produces a half-maximal response. A low value points to a more potent agent.

With `O=C(O)c1ccc2nc(N3CCc4cc(OCc5c(-c6c(Cl)cccc6Cl)noc5C5CC5)ccc4C3)sc2c1` [Example 23, 2-(6-((5-cyclopropyl-3-(2,6-dichlorophenyl)isoxazol-4-yl)methoxy)-3,4-dihydroisoquinolin-2 (1H)-yl) benzo[d]thiazole-6-carboxylic Acid], the EC50 was less than 100 nM.
`O=C(O)c1ccc2nc(N3CCc4ccc(OCc5c(-c6c(Cl)cccc6Cl)noc5C5CC5)cc4C3)sc2c1` [Example 24, 2-(7-((5-cyclopropyl-3-(2,6-dichlorophenyl)isoxazol-4-yl)methoxy)-3,4-dihydroisoquinolin-2(1H)-yl) benzo[d]thiazole-6-carboxylic Acid]: the EC50 lay within 100 to 1000 nM.
With `O=C(O)c1ccc2nc(N3CC4CCC(OCc5c(-c6c(Cl)cccc6Cl)noc5C5CC5)CC4C3)sc2c1` (stereo not drawn) [Example 25, 2-(5-((5-cyclopropyl-3-(2,6-dichlorophenyl)isoxazol-4-yl)methoxy)hexahydro-1H-isoindol-2(3H)-yl) benzo[d]thiazole-6-carboxylic Acid] the figure was 100 to 1000 nM; with `O=C(O)c1ccc2nc(N3CC4CC(OCc5c(-c6c(Cl)cccc6Cl)noc5C5CC5)CC4C3)sc2c1` (stereo not drawn) [Example 26, 2-(5-((5-cyclopropyl-3-(2,6-dichlorophenyl)isoxazol-4-yl)methoxy)hexahydrocyclopenta[c]pyrrol-2(1H)-yl) benzo[d]thiazole-6-carboxylic Acid], less than 100 nM; with `O=C(O)c1ccc2nc(N3CC4CCCC(C3)C4OCc3c(-c4c(Cl)cccc4Cl)noc3C3CC3)sc2c1` (stereo not drawn) [Example 28, 2-(9-((5-cyclopropyl-3-(2,6-dichlorophenyl)isoxazol-4-yl)methoxy)-3-azazbicyclo[3.3.1]nonan-3-yl) benzo[d]thiazole-6-carboxylic Acid], less than 100 nM.
With `O=C(O)c1cc2cc(N3CCC4(CC(OCc5c(-c6c(Cl)cccc6Cl)noc5C5CC5)C4)C3)ccc2o1` (stereo not drawn) [Example 29] the figure was less than 100 nM.
With `O=C(O)c1cc2ccc(N3CCC4(CC(OCc5c(-c6c(Cl)cccc6Cl)noc5C5CC5)C4)C3)cc2s1` (stereo not drawn) [Example 30, 6-(2-((5-cyclopropyl-3-(2,6-dichlorophenyl)isoxazol-4-yl)methoxy)-6-azaspiro[3.4]octan-6-yl) benzothiophene-2-carboxylic Acid] the figure was 100 to 1000 nM; with `O=C(O)c1nsc2cc(N3CCC4(CC(OCc5c(-c6c(Cl)cccc6Cl)noc5C5CC5)C4)C3)ccc12` (stereo not drawn) [Example 31, 6-(2-((5-cyclopropyl-3-(2,6-dichlorophenyl)isoxazol-4-yl)methoxy)-6-azaspiro[3.4]octan-6-yl) benzo[d]isothiazole-3-carboxylic Acid], less than 100 nM; with `Cn1c(C(=O)O)cc2cc(N3CCC4(CC(OCc5c(-c6c(Cl)cccc6Cl)noc5C5CC5)C4)C3)ccc21` (stereo not drawn) [Example 32, 5-(2-((5-cyclopropyl-3-(2,6-dichlorophenyl)isoxazol-4-yl)methoxy)-6-azaspiro[3.4]octan-6-yl)-1-methyl-1H-indole-2-carboxylic Acid], 100 to 1000 nM.
`Cn1cc(C(=O)O)c2ccc(N3CCC4(CC(OCc5c(-c6c(Cl)cccc6Cl)noc5C5CC5)C4)C3)cc21` (stereo not drawn) [Example 33, 6-(2-((5-cyclopropyl-3-(2,6-dichlorophenyl)isoxazol-4-yl)methoxy)-6-azaspiro[3.4]octan-6-yl)-1-methyl-1H-indole-3-carboxylic Acid] had an EC50 of 100 to 1000 nM.
With `O=C(O)c1ccc2nc(N3CCC4(CC(OCc5c(-c6c(Cl)cccc6Cl)noc5C5CC5)C4)C3)ccc2c1` (stereo not drawn) [Example 34, 2-(2-((5-cyclopropyl-3-(2,6-dichlorophenyl)isoxazol-4-yl)methoxy)-6-azaspiro[3.4]octan-6-yl)quinolin-6-carboxylic Acid] the figure was 100 to 1000 nM.
With `O=C(O)c1cnc(N2CCC3(CC(OCc4c(-c5c(Cl)cccc5Cl)noc4C4CC4)C3)C2)cn1` (stereo not drawn) [Example 35, 5-(2-((5-cyclopropyl-3-(2,6-dichlorophenyl)isoxazol-4-yl)methoxy)-6-azaspiro[3.4]octan-6-yl)pyrazine-2-carboxylic Acid] the figure was less than 100 nM.
